Reference: patent publication US10195179B2, “Spiro-lactam NMDA receptor modulators and uses thereof” (Aptinyx Inc., priority 2016, dated 2019)
Read-outs that look alike come from different tables or passages of the source.

Tests used:
[1] = Microsomal stability, human; assay type: in vitro ADME; conditions: human microsomes
Experimental: (§1) Microsomal stability for Compound AA and Compound BB was investigated. The following table indicates the percent of Compound AA and Compound BB remaining after 60 minutes.

[2] = Microsomal stability, rat; assay type: in vitro ADME; conditions: rat microsomes
Experimental: as §1

Plasma stability, human = assay type: in vitro ADME
Experimental: (§2) Plasma stability for Compound AA and Compound BB was investigated. The following table indicates the percent of Compound AA and Compound BB remaining after 60 minutes.

Plasma stability, rat = assay type: in vitro ADME
Experimental: as §2

[3] = Plasma protein binding assay, rat; assay type: in vitro ADME; conditions: read-out: Plasma Protein binding (% Bound) Plasma rat (converted)
Experimental: Bound drug concentration in the brain was also investigated, and plasma protein binding assays were conducted. The following table (% bound) indicates results for Compound AA and Compound BB.

[4] = Bioavailability and CSF/brain/plasma exposure after PO administration; assay type: in vivo, Sprague Dawley rats; conditions: rat, plasma; PO administration (10 mg/kg PO, 2 mg/kg IV), male Sprague Dawley rats; read-out: Bioavailablity (% F)
Experimental: The bioavailablity of Compound BB was investigated following PO administration. CSF, brain and plasma samples were analyzed following dosing with compound BB (10 mg/kg). The following table indicates the bioavailablity and CSF/plasma and brain/plasma ratios.
Sprague Dawley rats were dosed intravenously with 2 mg/kg of Compound AA. A second group of Sprague Dawley rats was dosed per os with 10 mg/kg of compound AA. Plasma samples were drawn over a 24 h period and analyzed for Compound AA. FIG. 3A presents the mean plasma concentration-time profile of Compound AA following the single intraveneous (2 mg/kg) and oral (10 mg/kg) dose administration in male Sprague Dawley rats over the 24 hour period.
In another experiment. Sprague Dawley rats were dosed intravenously with 2 mg/kg of Compound BB. A second group of Sprague Dawley rats was dosed per os with 10 mg/kg of compound BB. Plasma samples were drawn over a 24 h period and analyzed for Compound BB. FIG. 3B presents the mean plasma concentration-time profile of Compound BB following the single intraveneous (2 mg/kg) and oral (10 mg/kg) dose administration in male Sprague Dawley rats over the 24 hour period.
In another experiment, Sprague Dawley rats were dosed per os with 10 mg/kg of Compound BB. Plasma, brain, and CSF samples were analyzed at various time points over a 24 hour period.

NR2A = NR2A (Homo sapiens, UniProt Q12879); assay: Potentiation of [3H]MK-801 binding, wild-type NMDAR2A; design: species or system rat; conditions: for NMDAR2A BINDING PROFILE % 1 mM Glycine: relative to 1 mM glycine
Chain of NR2A (Q12879 23-1464, species assumed, other chains not shown): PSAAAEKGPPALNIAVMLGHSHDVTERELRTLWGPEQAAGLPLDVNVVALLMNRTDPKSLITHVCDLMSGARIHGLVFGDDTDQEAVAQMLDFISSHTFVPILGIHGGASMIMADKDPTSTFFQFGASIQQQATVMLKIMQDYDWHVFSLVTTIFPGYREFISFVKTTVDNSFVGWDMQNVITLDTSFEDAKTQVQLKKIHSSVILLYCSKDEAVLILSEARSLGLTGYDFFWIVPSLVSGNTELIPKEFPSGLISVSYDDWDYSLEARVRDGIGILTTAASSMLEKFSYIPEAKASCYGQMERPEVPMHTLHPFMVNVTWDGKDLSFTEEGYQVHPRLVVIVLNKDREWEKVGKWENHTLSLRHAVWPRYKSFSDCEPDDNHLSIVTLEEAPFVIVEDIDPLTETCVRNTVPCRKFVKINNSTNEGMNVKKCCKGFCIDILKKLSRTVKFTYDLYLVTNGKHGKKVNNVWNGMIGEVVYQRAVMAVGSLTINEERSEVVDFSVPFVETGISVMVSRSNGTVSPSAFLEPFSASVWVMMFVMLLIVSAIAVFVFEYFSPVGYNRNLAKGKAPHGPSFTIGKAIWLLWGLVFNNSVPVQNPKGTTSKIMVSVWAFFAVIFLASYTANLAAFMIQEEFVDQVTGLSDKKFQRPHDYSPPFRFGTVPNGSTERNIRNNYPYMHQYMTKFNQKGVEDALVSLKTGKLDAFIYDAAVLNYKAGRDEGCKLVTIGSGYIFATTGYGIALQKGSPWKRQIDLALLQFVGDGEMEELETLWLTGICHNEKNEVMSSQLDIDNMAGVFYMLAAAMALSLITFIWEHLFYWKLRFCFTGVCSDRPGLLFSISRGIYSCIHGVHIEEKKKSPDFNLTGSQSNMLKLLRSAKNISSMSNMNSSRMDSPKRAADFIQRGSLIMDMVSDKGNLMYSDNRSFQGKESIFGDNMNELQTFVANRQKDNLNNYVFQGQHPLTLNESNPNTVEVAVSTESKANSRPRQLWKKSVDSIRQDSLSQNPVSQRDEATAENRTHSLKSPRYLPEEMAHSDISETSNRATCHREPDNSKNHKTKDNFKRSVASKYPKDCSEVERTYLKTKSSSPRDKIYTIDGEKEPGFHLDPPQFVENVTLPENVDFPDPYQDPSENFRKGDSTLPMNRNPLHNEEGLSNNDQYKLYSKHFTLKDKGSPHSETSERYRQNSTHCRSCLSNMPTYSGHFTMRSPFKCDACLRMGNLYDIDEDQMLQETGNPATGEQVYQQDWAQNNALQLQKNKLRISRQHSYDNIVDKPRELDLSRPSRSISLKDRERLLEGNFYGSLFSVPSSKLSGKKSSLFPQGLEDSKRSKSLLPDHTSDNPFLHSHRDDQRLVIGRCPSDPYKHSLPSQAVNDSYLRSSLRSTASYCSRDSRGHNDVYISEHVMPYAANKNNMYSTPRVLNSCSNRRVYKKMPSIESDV

NR2B = NR2B (Homo sapiens, UniProt Q13224); assay: Potentiation of [3H]MK-801 binding, wild-type NMDAR2B; design: species or system rat; conditions: for NMDAR2B BINDING PROFILE % 1 mM Glycine: relative to 1 mM glycine; for NMDAR2B BINDING PROFILE Conclusion / EC50: wild-type NMDAR2B; for EC50: 0 = no activity, read-out: NMDAR2B BINDING PROFILE −logEC50 (converted)
Chain of NR2B (Q13224 27-1484, species assumed, other chains not shown): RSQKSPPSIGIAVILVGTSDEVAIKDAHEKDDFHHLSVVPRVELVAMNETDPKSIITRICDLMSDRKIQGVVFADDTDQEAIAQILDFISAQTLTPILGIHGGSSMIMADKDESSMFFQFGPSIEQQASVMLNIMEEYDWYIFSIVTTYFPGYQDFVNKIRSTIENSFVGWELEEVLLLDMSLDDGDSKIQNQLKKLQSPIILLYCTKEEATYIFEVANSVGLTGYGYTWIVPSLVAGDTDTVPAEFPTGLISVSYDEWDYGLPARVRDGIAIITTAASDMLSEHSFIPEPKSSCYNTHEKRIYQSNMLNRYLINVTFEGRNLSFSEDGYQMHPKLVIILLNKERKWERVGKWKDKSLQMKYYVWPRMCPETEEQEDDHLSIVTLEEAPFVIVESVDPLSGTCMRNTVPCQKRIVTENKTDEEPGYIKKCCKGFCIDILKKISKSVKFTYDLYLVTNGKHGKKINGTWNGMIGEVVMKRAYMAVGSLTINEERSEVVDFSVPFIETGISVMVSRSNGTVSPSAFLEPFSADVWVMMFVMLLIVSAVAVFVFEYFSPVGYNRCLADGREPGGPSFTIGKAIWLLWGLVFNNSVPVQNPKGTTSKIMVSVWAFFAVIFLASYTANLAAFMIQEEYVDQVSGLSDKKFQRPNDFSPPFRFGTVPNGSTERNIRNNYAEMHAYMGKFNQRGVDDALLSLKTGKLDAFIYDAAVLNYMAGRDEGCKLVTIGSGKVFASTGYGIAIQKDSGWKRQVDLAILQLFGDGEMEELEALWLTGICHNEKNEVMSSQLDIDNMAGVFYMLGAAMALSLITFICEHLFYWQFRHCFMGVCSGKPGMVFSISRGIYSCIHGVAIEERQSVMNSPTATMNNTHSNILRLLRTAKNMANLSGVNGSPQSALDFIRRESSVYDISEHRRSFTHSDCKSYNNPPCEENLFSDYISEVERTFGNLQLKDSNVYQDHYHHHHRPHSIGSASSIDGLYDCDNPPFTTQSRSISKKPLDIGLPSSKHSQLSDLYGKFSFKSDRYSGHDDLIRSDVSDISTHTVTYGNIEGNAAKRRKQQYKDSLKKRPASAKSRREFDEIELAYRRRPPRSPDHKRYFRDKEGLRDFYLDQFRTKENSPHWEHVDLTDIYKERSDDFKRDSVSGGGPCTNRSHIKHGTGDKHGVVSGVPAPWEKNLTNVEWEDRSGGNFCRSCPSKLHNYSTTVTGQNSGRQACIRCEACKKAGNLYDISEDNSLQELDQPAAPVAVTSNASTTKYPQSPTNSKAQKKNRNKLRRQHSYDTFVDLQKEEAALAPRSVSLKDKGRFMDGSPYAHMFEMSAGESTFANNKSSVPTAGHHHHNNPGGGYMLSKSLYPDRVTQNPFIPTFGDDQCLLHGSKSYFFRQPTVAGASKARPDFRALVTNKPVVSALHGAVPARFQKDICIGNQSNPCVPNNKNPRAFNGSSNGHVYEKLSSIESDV
Experimental: (§3) Assays were conducted as described by Moskal et al., “GLYX-13: a monoclonal antibody-derived peptide that acts as an N-methyl-D-aspartate receptor modulator,” Neuropharmacology, 49, 1077-87, 2005. The potentiation of [^3H]MK-801 binding (5 nM; 22.5 Ci/mmol) to well washed rat cortical membranes (200 μg) was measured under non-equilibrium conditions (15 min @ 25° C.) in the presence of increasing concentrations of Compound AA or Compound BB.
(§4) FIG. 2A depicts the potentiation of [^3H]MK-801 binding for wild-type NMDAR2 subtypes in the presence of Compound AA. FIG. 2B depicts the potentiation of [^3H]MK-801 binding for wild-type NMDAR2 subtypes in the presence of Compound BB. The following table depicts the results (P means potency and A means activity): […]

NR2C = NR2C (Homo sapiens, UniProt Q14957); assay: Potentiation of [3H]MK-801 binding, wild-type NMDAR2C; design: species or system rat; conditions: for NMDAR2C BINDING PROFILE % 1 mM Glycine: relative to 1 mM glycine
Experimental: as §3, §4

NR2D = NR2D (Homo sapiens, UniProt O15399); assay: Potentiation of [3H]MK-801 binding, wild-type NMDAR2D; design: species or system rat; conditions: for NMDAR2D BINDING PROFILE % 1 mM Glycine: relative to 1 mM glycine
Chain of NR2D (O15399 28-1336, species assumed, other chains not shown): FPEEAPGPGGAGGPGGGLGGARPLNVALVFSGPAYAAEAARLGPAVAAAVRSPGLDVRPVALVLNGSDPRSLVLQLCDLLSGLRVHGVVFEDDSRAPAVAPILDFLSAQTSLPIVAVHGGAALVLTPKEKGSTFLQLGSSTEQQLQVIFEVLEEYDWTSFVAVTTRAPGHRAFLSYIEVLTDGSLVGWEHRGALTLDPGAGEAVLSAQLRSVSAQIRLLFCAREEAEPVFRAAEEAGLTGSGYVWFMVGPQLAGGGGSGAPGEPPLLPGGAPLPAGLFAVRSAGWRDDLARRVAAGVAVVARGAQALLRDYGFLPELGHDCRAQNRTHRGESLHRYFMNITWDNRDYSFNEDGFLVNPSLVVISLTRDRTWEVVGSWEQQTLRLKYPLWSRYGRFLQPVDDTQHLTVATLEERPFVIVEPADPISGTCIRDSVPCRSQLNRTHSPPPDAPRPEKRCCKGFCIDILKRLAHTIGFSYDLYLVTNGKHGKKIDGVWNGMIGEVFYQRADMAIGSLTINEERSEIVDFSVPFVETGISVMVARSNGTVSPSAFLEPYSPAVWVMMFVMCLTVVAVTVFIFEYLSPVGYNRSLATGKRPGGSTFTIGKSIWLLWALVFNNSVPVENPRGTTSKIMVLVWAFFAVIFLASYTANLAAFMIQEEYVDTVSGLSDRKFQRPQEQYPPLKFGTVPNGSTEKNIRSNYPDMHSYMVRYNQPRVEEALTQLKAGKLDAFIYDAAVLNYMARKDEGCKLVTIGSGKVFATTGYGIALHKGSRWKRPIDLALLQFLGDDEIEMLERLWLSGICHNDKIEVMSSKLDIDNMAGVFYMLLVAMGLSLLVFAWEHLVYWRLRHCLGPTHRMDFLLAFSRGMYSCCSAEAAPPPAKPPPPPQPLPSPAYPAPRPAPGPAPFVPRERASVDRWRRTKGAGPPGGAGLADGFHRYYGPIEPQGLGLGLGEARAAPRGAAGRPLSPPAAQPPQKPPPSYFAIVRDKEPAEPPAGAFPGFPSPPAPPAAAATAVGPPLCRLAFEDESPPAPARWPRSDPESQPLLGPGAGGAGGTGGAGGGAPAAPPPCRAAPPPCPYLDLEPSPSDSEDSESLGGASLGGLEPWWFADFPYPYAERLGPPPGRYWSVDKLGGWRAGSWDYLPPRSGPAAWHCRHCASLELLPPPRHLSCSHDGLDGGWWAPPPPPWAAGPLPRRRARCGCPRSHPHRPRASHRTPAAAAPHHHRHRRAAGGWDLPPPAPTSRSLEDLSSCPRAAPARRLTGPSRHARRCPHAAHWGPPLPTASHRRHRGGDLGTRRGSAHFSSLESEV
Experimental: as §3, §4

Sprague Dawley rats = assay: Porsolt forced swim test; assay type: in vivo, rat; conditions: 1 mg/kg PO
Experimental: A non-clinical in vivo pharmacology study (Porsolt assay) was performed to measure antidepressant-like effects. A negative control (0.5% sodium carboxymethyl cellulose in 0.9% sterile saline vehicle) and a positive control (Compound C) were used to compare against Compound BB. The study allowed for the construction of a dose-response curve of the effects of each compound on the Porsolt forced swim test as assessed by the rats' response (reduced floating time) during a 5-minute swimming test.
Male 2-3 month old Sprague Dawley rats were used (Harlan, Indianapolis, Ind.). Rats were housed in Lucite cages with aspen wood chip bedding, maintained on a 12:12 light:dark cycle (lights on at 5 AM), and given ad libitum access to Purina lab chow (USA) and tap water throughout the study.
The Porsolt forced swim test adapted for use in rats was performed as described by Burgdorf et al., (The long-lasting antidepressant effects of rapastinel (GLYX-13) are associated with a metaplasticity process in the medial prefrontal cortex and hippocampus. Neuroscience 308:202-211, 2015). Animals were placed in a 46 cm tall×20 cm in diameter clear glass tube filled to 30 cm with tap water (23±1° C.) for 15 min on the first day (habituation) and 5 min on the subsequent test day. Animals were tested 1 h post-dosing with the compound BB, positive control (Compound C, 10 μg/kg), or vehicle (0.5% sodium carboxymethyl cellulose (Na-CMC) in 0.9% sterile saline). Water was changed after every other animal. Animals were videotaped, and floating time as defined as the minimal amount of effort required to keep the animals head above water was scored offline by a blinded experimenter with high inter-rater reliability (Pearson's r >0.9).
The maximally efficacious dose was defined as the lowest dose that was statistically different from vehicle but statistically equivalent (per Fisher's PLSD) to the higher doses. […]
Compound AA was assessed in a second set of animals at a single dose at 1 h post-administration and in a third set of animals at 24 h post-administration (FIG. 9B). […]

[5] = potentiation of [3H]MK-801 binding
[6] = wild-type NMDAR2D, read-out: NMDAR2D BINDING PROFILE −logEC50 (converted)
[7] = wild-type NMDAR2A, 0 = no activity, read-out: NMDAR2A BINDING PROFILE −logEC50 (converted)
[8] = wild-type NMDAR2C, 0 = no activity, read-out: NMDAR2C BINDING PROFILE −logEC50 (converted)

Row | Structure (SMILES) | NMDAR2A BINDING PROFILE % 1 mM Glycine (NR2A) [%] | NMDAR2A BINDING PROFILE Conclusion (NR2A; wild-type NMDAR2A) | NMDAR2B BINDING PROFILE % 1 mM Glycine (NR2B) [%] | NMDAR2B BINDING PROFILE Conclusion (NR2B) | NMDAR2C BINDING PROFILE % 1 mM Glycine (NR2C) [%] | NMDAR2C BINDING PROFILE Conclusion (NR2C; wild-type NMDAR2C) | NMDAR2D BINDING PROFILE % 1 mM Glycine (NR2D) [%] | NMDAR2D BINDING PROFILE Conclusion (NR2D; wild-type NMDAR2D) | EC50 (NR2D; [6]) [M] | EC50 (NR2A; [7]) [M] | EC50 (NR2B) [nM] | EC50 (NR2C; [8]) [M] | also measured
1 | C[C@@H](O)[C@@H](C(N)=O)N1C[C@]2(CCCN2C(=O)OC(C)(C)C)C1=O [Compound W, tert-butyl (R)-2-((2S,3R)-1-amino-3-hydroxy-1-oxobutan-2-yl)-1-oxo-2,5-diazaspiro[3,4]octane-5-carboxylate] | 18.33 | WT2A agonist | 53.09 | WT2B agonist | 67.5 | WT2C agonist | 66.72 | WT2D agonist | 7.08e-12 | 4.47e-12 | 1.06 | 1.45e-10 | 
2 | C[C@@H](O)[C@@H](C(N)=O)N1C[C@@]2(CCCN2C(=O)OC(C)(C)C)C1=O [Compound X, tert-butyl (S)-2-((2S,3R)-1-amino-3-hydroxy-1-oxobutan-2-yl)-1-oxo-2,5-diazaspiro[3,4]octane-5-carboxylate] | 41.04 | WT2A agonist | 59.55 | WT2B agonist | 59.73 | WT2C agonist | 93.58 | WT2D agonist | 1.32e-12 |  | 0.147 |  | 

Further lines, with some results ahead:

Row | NMDAR2A BINDING PROFILE % 1 mM Glycine (NR2A) [%] | NMDAR2A BINDING PROFILE Conclusion (NR2A; wild-type NMDAR2A) | NMDAR2B BINDING PROFILE % 1 mM Glycine (NR2B) [%] | NMDAR2B BINDING PROFILE Conclusion (NR2B) | NMDAR2C BINDING PROFILE % 1 mM Glycine (NR2C) [%] | NMDAR2C BINDING PROFILE Conclusion (NR2C; wild-type NMDAR2C) | NMDAR2D BINDING PROFILE % 1 mM Glycine (NR2D) [%] | NMDAR2D BINDING PROFILE Conclusion (NR2D; wild-type NMDAR2D) | EC50 (NR2D; [6]) [M] | EC50 (NR2A; [7]) [M] | EC50 (NR2B) [nM] | EC50 (NR2C; [8]) [M] | Structure (SMILES) | also measured
3 | 38.8 | WT2A agonist | 0 | WT2B no | 67 | WT2C agonist | 52 | WT2D agonist | 1.58e-11 |  |  |  | C[C@@H](O)[C@@H](C(N)=O)N1C[C@]2(CCCN2S(C)(=O)=O)C1=O [Compound AA, (2S,3R)-3-hydroxy-2-((R)-5-(methylsulfonyl)-1-oxo-2,5-diazaspiro[3,4]octan-2-yl)butanamide] | Microsomal Stability (% remaining at 60 min) Human [1]: 100%; Microsomal Stability (% remaining at 60 min) Rat [2]: 100%; Plasma Stability (% remaining at 60 min) Human (Plasma stability, human): 91%; Plasma Stability (% remaining at 60 min) Rat (Plasma stability, rat): 59%; fraction unbound [3]: 0.82; bioavailability [4]: 29%; NR2A A (%) (activity) (NR2A; [5]): 38.8%; EC50 (NR2A; potentiation of [3H]MK-801 binding, 0 = no activity, read-out: NR2A P (M) (potency)): 1e-10 M; NMDAR2A BINDING PROFILE −logEC50 (NR2A; wild-type NMDAR2A, 0 = no activity): 10; NR2B A (%) (activity) (NR2B; [5]): 0%; NR2C A (%) (activity) (NR2C; [5]): 67.0%; EC50 (NR2C; potentiation of [3H]MK-801 binding, 0 = no activity, read-out: NR2C P (M) (potency)): 1e-10 M; NMDAR2C BINDING PROFILE −logEC50 (NR2C; wild-type NMDAR2C, 0 = no activity): 10; NR2D A (%) (activity) (NR2D; [5]): 58.7%; EC50 (NR2D; potentiation of [3H]MK-801 binding, 0 = no activity, read-out: NR2D P (M) (potency) (converted)): 2e-11 M; floating time in the Porsolt test (Sprague Dawley rats; 1 h post-dosing): significant (p<0.05) antidepressant-like effect; floating time in the Porsolt test (Sprague Dawley rats; 24 h post-dosing): significant (p<0.05) antidepressant-like effect
4 | 61.76 | WT2A agonist | 70.74 | WT2B agonist | 64.24 | WT2C agonist | 54.85 | WT2D agonist | 1e-10 | 8.91e-12 |  | 3.63e-12 | CC(C)C(=O)N1CCC[C@]12CN([C@H](C(N)=O)[C@@H](C)O)C2=O [Compound Y, (2S,3R)-3-hydroxy-2-((R)-5-isobutyryl-1-oxo-2,5-diazaspiro[3,4]octan-2-yl)butanamide] | 
5 | 42.5 | WT2A agonist | 70.49 | WT2B agonist | 47.76 | WT2C agonist | 65.32 | WT2D agonist | 6.03e-12 | 8.71e-11 |  | 3.16e-12 | CC(C)C(=O)N1CCC[C@@]12CN([C@H](C(N)=O)[C@@H](C)O)C2=O [Compound Z, (2S,3R)-3-hydroxy-2-((S)-5-isobutyryl-1-oxo-2,5-diazaspiro[3,4]octan-2-yl)butanamide] | 
